One assay addresses T1, Protein RecA (Mycobacterium tuberculosis, UniProt P9WHJ3).
T1 sequence (P9WHJ3 whole entry): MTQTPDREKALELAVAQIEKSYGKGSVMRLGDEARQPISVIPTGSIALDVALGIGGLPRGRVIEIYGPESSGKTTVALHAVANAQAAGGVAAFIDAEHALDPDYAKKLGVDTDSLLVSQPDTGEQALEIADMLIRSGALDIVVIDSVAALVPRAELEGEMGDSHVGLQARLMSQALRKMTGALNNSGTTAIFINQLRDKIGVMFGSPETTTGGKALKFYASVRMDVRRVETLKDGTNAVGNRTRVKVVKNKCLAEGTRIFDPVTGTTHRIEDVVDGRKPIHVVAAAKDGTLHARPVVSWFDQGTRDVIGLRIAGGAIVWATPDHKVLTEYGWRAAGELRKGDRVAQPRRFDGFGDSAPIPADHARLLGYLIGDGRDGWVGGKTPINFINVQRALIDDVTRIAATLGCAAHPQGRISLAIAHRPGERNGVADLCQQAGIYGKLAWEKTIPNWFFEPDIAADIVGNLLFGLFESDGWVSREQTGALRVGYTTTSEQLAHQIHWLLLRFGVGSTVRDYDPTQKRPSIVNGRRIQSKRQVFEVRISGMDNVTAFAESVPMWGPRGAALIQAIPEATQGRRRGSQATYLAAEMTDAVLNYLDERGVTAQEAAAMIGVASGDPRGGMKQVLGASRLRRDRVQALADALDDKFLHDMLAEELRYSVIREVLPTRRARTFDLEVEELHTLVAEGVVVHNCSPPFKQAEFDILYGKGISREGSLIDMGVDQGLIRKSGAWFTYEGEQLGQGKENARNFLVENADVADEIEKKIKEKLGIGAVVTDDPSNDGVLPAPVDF
In words: Fluorescence Cell-Free Homogeneous Dose Retest to Identify Inhibitors of RecA-Intein Splicing Activity. [Related pubchem assays (depositor defined):AID2097, AID2223, AID489010, AID492950]. In kind it is functional.

For assay [1], the target named is T2, 1-phosphatidylinositol 4,5-bisphosphate phosphodiesterase gamma-1 (Homo sapiens, UniProt P19174).
T2 sequence (P19174 whole entry): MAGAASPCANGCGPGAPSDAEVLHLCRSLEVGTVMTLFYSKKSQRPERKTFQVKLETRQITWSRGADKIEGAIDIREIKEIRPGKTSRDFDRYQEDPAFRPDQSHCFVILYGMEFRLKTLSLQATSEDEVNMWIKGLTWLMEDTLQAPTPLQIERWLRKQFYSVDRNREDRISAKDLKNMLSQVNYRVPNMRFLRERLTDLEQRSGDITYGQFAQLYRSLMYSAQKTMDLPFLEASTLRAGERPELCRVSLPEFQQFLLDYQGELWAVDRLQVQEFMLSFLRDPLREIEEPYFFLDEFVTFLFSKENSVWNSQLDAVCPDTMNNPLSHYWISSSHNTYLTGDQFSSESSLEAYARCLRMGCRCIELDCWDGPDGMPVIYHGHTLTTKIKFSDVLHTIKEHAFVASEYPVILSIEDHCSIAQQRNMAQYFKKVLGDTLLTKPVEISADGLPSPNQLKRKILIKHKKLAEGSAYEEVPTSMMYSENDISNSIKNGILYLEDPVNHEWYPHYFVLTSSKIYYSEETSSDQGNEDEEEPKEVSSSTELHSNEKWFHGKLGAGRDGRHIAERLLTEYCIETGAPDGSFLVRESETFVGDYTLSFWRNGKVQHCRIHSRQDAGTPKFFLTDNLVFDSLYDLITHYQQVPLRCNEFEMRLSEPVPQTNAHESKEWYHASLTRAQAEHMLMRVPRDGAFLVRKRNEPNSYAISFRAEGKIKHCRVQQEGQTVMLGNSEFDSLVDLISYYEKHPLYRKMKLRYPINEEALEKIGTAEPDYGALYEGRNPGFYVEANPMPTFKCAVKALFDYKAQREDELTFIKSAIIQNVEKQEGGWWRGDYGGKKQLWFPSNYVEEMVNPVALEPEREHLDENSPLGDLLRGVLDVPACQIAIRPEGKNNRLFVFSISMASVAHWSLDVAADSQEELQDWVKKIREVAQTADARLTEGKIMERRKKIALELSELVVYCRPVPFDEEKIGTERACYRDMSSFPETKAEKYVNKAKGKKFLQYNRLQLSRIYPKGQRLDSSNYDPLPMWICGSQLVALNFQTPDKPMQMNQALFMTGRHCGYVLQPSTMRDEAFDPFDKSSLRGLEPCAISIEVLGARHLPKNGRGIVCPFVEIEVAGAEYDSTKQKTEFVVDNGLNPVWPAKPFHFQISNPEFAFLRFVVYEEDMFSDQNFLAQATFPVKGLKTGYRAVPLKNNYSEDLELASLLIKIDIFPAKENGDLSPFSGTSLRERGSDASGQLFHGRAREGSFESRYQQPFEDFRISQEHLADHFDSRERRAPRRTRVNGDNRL
In words: Counterscreen for inhibitors of phospholipase C isozymes (PLC-B3): Fluorescence-based biochemical high throughput dose response assay to identify inhibitors of phospholipase C isozymes (PLC-gamma1).

Active and inactive are the calls of the source. A value given as a limit tells only on which side of the number the result lay.

Usually EC50 stands for the concentration at which the effect is half-maximal. Usually IC50 stands for the point on the concentration scale where inhibition reaches its midpoint.

As to `C=C1C(=O)O[C@@H]2C[C@@H](C)[C@@H]3C=CC(=O)[C@@]3(C)[C@@H](OC(=O)CC(=O)O[C@H]3[C@@H]4C(=C)C(=O)O[C@@H]4C[C@@H](C)[C@@H]4C=CC(=O)[C@]43C)[C@H]12`, the EC50 on Protein RecA is 46 µM (active).
As for `CCN(CC)CCN1C(=O)c2cccc3cc(N)cc(c23)C1=O`, the EC50 on Protein RecA was 0.209 µM (active).
Turning to `O=S(=O)(O)c1cc(Cl)cc(N=Nc2ccc(O)cc2O)c1O`, in assay [1], the IC50 is > 122 µM (inactive).
For `O=C(O)c1cccc(-n2cccc2/C=C2/NC(=O)N(c3ccc(Cl)cc3)C2=O)c1`, in assay [1], the IC50 is > 122 µM (inactive).

The values above are taken from ChEMBL document CHEMBL1201862, “PubChem BioAssay data set” (2004).
